One assay addresses T1, TAK1 (Homo sapiens, UniProt O43318).
T1 construct: purchased Invitrogen (Thermo Fisher Scientific)
T1 sequence (O43318 with tags, fused parts or gaps limits assumed): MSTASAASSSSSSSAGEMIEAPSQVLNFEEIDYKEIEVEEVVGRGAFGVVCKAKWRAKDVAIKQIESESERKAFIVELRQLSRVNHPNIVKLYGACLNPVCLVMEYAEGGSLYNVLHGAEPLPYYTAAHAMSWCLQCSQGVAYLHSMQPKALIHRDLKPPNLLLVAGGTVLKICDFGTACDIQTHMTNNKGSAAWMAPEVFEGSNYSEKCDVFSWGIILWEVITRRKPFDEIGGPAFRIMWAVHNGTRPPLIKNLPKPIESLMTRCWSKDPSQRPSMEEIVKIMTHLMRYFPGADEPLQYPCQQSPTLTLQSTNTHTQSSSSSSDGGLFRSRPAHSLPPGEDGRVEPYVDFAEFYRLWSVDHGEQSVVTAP
Kind of assay: TAK1 LanthaScreen Eu Kinase Binding Assay (Invitrogen; Table 1 calls it TAK1 enzymatic assay). The note with it: for TAK1 potency, SAR result in words: Table 1 SAR discussion; for IC50: read-out: IC50 against TAK1. On the procedure:
Kinase assays were performed by Invitrogen (now Thermo Fisher Scientific, Waltham, MA) or Reaction Biology Corp. (Malvern, PA). Inhibitory activity of compounds for TAK1 was evaluated using LanthaScreen® Eu Kinase Binding Assay (Invitrogen, Waltham, MA). The kinase profile of compound 13h was determined by the kinase HotSpot Profiling service of Reaction Biology Corporation. All assays were performed at Km for ATP.
Table 1. TAK1 enzymatic assay with imidazopyridine derivatives. ^a In-vitro enzymatic assay data obtained from Invitrogen^TM.
A general note: TR-FRET usually uses a lanthanide donor and a delayed reading to cut background.

For the next assay, the system named is MDA-MB-231 cells. Kind of assay: Caspase-3/7 assay (Apo-ONE). Format: cell-based. Conditions: 10 µM, presence of TNFα (10 ng/ml), 24 h, MDA-MB-231, positive control. On the procedure: MDA-MB-231 cells were obtained from the Korean Cell Line Bank. Cells were cultured in Roswell Park Memorial Institute (RPMI) 1640 medium containing 10% foetal bovine serum and 1% penicillin/streptomycin at 37 °C with 5% CO2 under humidified atmosphere.
The assay was performed using Apo-ONE® Homogeneous Caspase-3/7 Assay kits (Catalogue No. G7790, Promega, Madison, WI). MDA-MB-231 cells in a concentration of 5000 cells/100 µl were seeded in each well of a black 96-well plate and starved after adhering to the plate. The cells were incubated for 24 h, and the serum-starved cells were treated with either Takinib or 13h in the presence or absence of TNFα (10 ng/ml). All samples and the control contained DMSO in a final concentration of 0.5%. After another 24 h of incubation, 100 µL of Apo-ONE® caspase-3/7 reagent was added to each well, and the cells were incubated at room temperature in darkness for 2 h. Fluorescence was then measured at 530 nm with excitation at 485 nm using a FlexStation 3 Multi-Mode microplate reader (Molecular Devices). Statistical analyses of the data included a one-way ANOVA, followed by Tukey’s multiple comparison test.

The values below come from PMC7594721, “Synthesis and biological activity of 2-cyanoacrylamide derivatives tethered to imidazopyridine as TAK1 inhibitors” (Journal of Enzyme Inhibition and Medicinal Chemistry, 2020).

As usually defined, the IC50 is the concentration that inhibits the measured activity by half.

With `COc1ccc(/C=C(\C#N)C(=O)N[C@@H]2CCN(c3c(Cl)cnc4[nH]c(-c5ccc(N6CCN(C)CC6)cc5)nc34)C2)nc1` [Compound 13k, (R,E)-N-(1–(6-chloro-2–(4-(4-methylpiperazin-1-yl)phenyl)-3H-imidazo[4,5-b]pyridin-7-yl)pyrrolidin-3-yl)-2-cyano-3-(5-methoxypyridin-2-yl)acrylamide], at TAK1, the “TAK1 potency, SAR result in words” value is “increased”.
For `C=CC(=O)N[C@@H]1CCN(c2nc(Nc3ccc(N4CCN(C)CC4)cc3)ncc2Cl)C1` [Compound 6], the IC50 on TAK1 was 413 nM.
In the case of `CN1CCN(c2ccc(-c3nc4c(N5CC[C@@H](NC(=O)/C(C#N)=C/c6cccc(F)n6)C5)c(Cl)cnc4[nH]3)cc2)CC1` [Compound 13f, (R,E)-N-(1-(6-chloro-2-(4-(4-methylpiperazin-1-yl)phenyl)-3H-imidazo[4,5-b]pyridin-7-yl)pyrrolidin-3-yl)-2-cyano-3–(6-fluoropyridin-2-yl)acrylamide], the “TAK1 potency, SAR result in words” value on TAK1 is reported as “maintained or improved potency”.
The same measure, in the same setting: the result for `Cc1csc(/C=C(\C#N)C(=O)N[C@@H]2CCN(c3c(Cl)cnc4[nH]c(-c5ccc(N6CCN(C)CC6)cc5)nc34)C2)n1` [Compound 13b, (R,E)-N-(1-(6-chloro-2-(4-(4-methylpiperazin-1-yl)phenyl)-3H-imidazo[4,5-b]pyridin-7-yl)pyrrolidin-3-yl)-2-cyano-3-(4-methylthiazol-2-yl)acrylamide] reads “highest potency”; that for `CN1CCN(c2ccc(-c3nc4c(N5CC[C@@H](NC(=O)/C(C#N)=C/c6cccc(Cl)n6)C5)c(Cl)cnc4[nH]3)cc2)CC1` [Compound 13g, (R,E)-N-(1–(6-chloro-2–(4–(4-methylpiperazin-1-yl)phenyl)-3H-imidazo[4,5-b]pyridin-7-yl)pyrrolidin-3-yl)-3-(6-chloropyridin-2-yl)-2-cyanoacrylamide], “increased”.
`CN1CCN(c2ccc(-c3nc4c(N5CC[C@@H](NC(=O)/C(C#N)=C/c6ccccc6)C5)c(Cl)cnc4[nH]3)cc2)CC1` [Compound 13a, (R,E)-N-(1-(6-chloro-2-(4-(4-methylpiperazin-1-yl)phenyl)-3H-imidazo[4,5-b]pyridin-7-yl)pyrrolidin-3-yl)-2-cyano-3-phenylacrylamide]: on TAK1 (TAK1, compared with 14), the “IC50 fold lower than the IC50 of 14” value is about 2.5 fold. Besides, on TAK1, the IC50 came out at 385 nM.
On to `CCCn1/c(=N/C(=O)c2cccc(C(N)=O)c2)[nH]c2ccccc21` [Takinib, reference compound], for which the caspase-3/7 activity entry with MDA-MB-231 cells is “significant caspase activation”.
As for `Cc1ccnc(/C=C(\C#N)C(=O)N[C@@H]2CCN(c3c(Cl)cnc4[nH]c(-c5ccc(N6CCN(C)CC6)cc5)nc34)C2)c1` [Compound 13l, (R,E)-N-(1-(6-chloro-2-(4-(4-methylpiperazin-1-yl)phenyl)-3H-imidazo[4,5-b]pyridin-7-yl)pyrrolidin-3-yl)-2-cyano-3–(4-methylpyridin-2-yl)acrylamide], on TAK1, the “TAK1 potency, SAR result in words” value was “excellent”.
On the same count and under the same terms, to `Cc1ccc(/C=C(\C#N)C(=O)N[C@@H]2CCN(c3c(Cl)cnc4[nH]c(-c5ccc(N6CCN(C)CC6)cc5)nc34)C2)nc1` [Compound 13j, (R,E)-N-(1–(6-chloro-2–(4-(4-methylpiperazin-1-yl)phenyl)-3H-imidazo[4,5-b]pyridin-7-yl)pyrrolidin-3-yl)-2-cyano-3-(5-methylpyridin-2-yl)acrylamide] belongs “excellent”.
“(R)-N-(1–(5-chloro-2-((4–(4-methylpiperazin-1-yl)phenyl)amino)pyrimidin-4-yl)pyrrolidin-3-yl)acrylamide [Compound 14]”: the “IC50 relative to that of the pyrimidine (6)” value at TAK1 (TAK1, compared with 6) is recorded as “approximately twice”. Besides, on TAK1, the IC50 was determined as 961 nM.
For the compound `CN1CCN(c2ccc(-c3nc4c(N5CC[C@@H](NC(=O)/C(C#N)=C/c6cccc(C7CC7)n6)C5)c(Cl)cnc4[nH]3)cc2)CC1` [Compound 13i, (R,E)-N-(1–(6-chloro-2–(4-(4-methylpiperazin-1-yl)phenyl)-3H-imidazo[4,5-b]pyridin-7-yl)pyrrolidin-3-yl)-2-cyano-3-(6-cyclopropylpyridin-2-yl)acrylamide], at TAK1, the “TAK1 potency, SAR result in words” value is “increased”.
